In publication PMC10569036:

Experiment: shake flask on a mixture of 185; loss from the water phase only; LC-Orbitrap peak areas
Conditions: room

Structure (SMILES)	log partition 1-octanol / HPLC water, unbuffered, traces of methanol / DMSO	log partition butyl acetate / HPLC water, unbuffered, traces of methanol / DMSO	log partition chloroform / HPLC water, unbuffered, traces of methanol / DMSO	log partition cyclohexane / HPLC water, unbuffered, traces of methanol / DMSO	log partition dichloromethane / HPLC water, unbuffered, traces of methanol / DMSO	log partition n-hexane / HPLC water, unbuffered, traces of methanol / DMSO	log partition n-octane / HPLC water, unbuffered, traces of methanol / DMSO	log partition n-undecane / HPLC water, unbuffered, traces of methanol / DMSO	log partition oleylalcohol / HPLC water, unbuffered, traces of methanol / DMSO	log partition toluene / HPLC water, unbuffered, traces of methanol / DMSO
Nc1ccc(/N=N/c2ccccc2)cc1	1.65 log10	1.2 log10	1.001 log10	1.333 log10	1.434 log10	1.192 log10	1.439 log10	1.239 log10	1.015 log10	0.9966 log10
CCCN(CCC)c1c([N+](=O)[O-])cc(C(C)C)cc1[N+](=O)[O-]	1.667 log10	0.7238 log10	0.1749 log10	-0.3058 log10	-0.415 log10	0.4636 log10	-0.4473 log10	-0.3356 log10	0.7657 log10	0.0275 log10
COC(=O)c1sccc1S(N)(=O)=O	1.602 log10	1.673 log10	1.568 log10	-1.037 log10	1.105 log10	-1.408 log10	-1.192 log10	-1.316 log10	0.8181 log10	0.3445 log10
CC(=O)Oc1ccc(C(C)=O)cc1	0.8444 log10	0.4506 log10	0.8919 log10	-0.4431 log10	0.1616 log10	-0.7051 log10	-0.2813 log10	-0.7594 log10	0.2271 log10	-0.3508 log10
COC(=O)c1ccc(C(=O)OC)c(C(=O)OC)c1	1.294 log10	0.7248 log10	1.573 log10	1.164 log10	1.169 log10	0.9609 log10	1.205 log10	0.9207 log10	0.6631 log10	1.185 log10
CCCCC(O)(Cn1cncn1)c1ccc(Cl)cc1Cl (stereo not drawn)	3.35 log10	5.299 log10	1.307 log10	3.351 log10	4.823 log10	2.027 log10	2.104 log10	2.029 log10	3.139 log10	4.525 log10
O=C1C=CC(=O)N1c1ccc(Cc2ccc(N3C(=O)C=CC3=O)cc2)cc1	-0.1715 log10	-0.4086 log10	-0.4673 log10	-0.523 log10	0.07258 log10	-0.4156 log10	-0.5042 log10	-0.6476 log10	-0.3131 log10	0.01296 log10
Oc1c(Cl)ccc(Cl)c1Cl	-0.2337 log10	-1.606 log10	0.7523 log10	0.2263 log10	-0.3412 log10	-0.04129 log10	0.4223 log10	-0.1707 log10	-0.8397 log10	-0.4023 log10
CCCCCCOc1cc(C)c(O)c(C)c1C	-0.6155 log10	-0.05403 log10	0.3185 log10	-0.4525 log10	-0.07725 log10	-0.4691 log10	-0.1513 log10	-0.6506 log10	0.4249 log10	-0.2013 log10
CC(C)Nc1nc(N)nc(Cl)n1	1.201 log10	1.711 log10	1.238 log10	-0.6663 log10	1.437 log10	-0.7941 log10	-0.5719 log10	-1.115 log10	1.559 log10	0.5402 log10
CN1C(=O)CCS(=O)(=O)C1c1ccc(Cl)cc1 (stereo not drawn)	–	–	3.591 log10	–	5.525 log10	–	–	–	–	4.586 log10
O=C(O)CCN(C1(C(=O)NO)CCCC1)S(=O)(=O)c1ccc(Oc2ccc(F)cc2)cc1	-0.5893 log10	1.182 log10	0.09364 log10	-1.331 log10	0.4348 log10	-1.472 log10	-1.686 log10	0.1413 log10	0.5204 log10	-0.3191 log10
C=C(C)C(=O)OCCOCCOC(=O)C(=C)C	0.2475 log10	-0.01795 log10	0.3491 log10	-0.1638 log10	0.4156 log10	-0.1437 log10	-0.3242 log10	-0.3846 log10	0.1237 log10	-0.03291 log10
